Measured values: patent publication US8080529B2, “Macrolides with anti-inflammatory activity” (Glaxo Group Limited, priority 2005, dated 2011)
Where two headings read alike, the source gives them in different places.

Tests used:
Type in all cases: cell-based
[1] = system: Hep G2; test: Cytotoxicity assay (MTT), Hep G2 cell line; details: 24 h
Protocol: (§1) To determine whether the anti-inflammatory activity of the test compounds was due to observed inhibition of cytokine production and inhibition of proliferation in vitro, and was not a consequence of cellular cytotoxicity, measurement of succinate dehydrogenase activity in living cells was performed. Cells were cultured for 24 h in RPM medium as described above at 37° C. the presence of the test compounds at concentrations of 50 μM and 12.5 μM. MTT [3-(4,5-dimethylthiazole-2-yl)-2,5-diphenyl tetrazolium bromide] (Promega, USA), a detection reagent, was then added and the cultures were incubated for 0.5-2 h. The amount of MTT-Formazan produced was determined using a spectrophotometer at 490 nm (Mosmann, J. Immunol. Methods, 1983, 65: 55-63).
(§2) The percentage of inhibition of cell growth was calculated using the following formula: % inhibition of cell growth=[…].

[2] = system: TNF-α; test: Inhibition of TNF-α production by stimulated human peripheral blood leukocytes in vitro; details: Homo sapiens, Leukocyte, read-out: Percentage of inhibition of TNF-α production
Protocol: (§3) Test substances used in in vitro experiments were dissolved in dimethyl sulfoxide (DMSO) (Kemika, Croatia) at concentrations of 50 mM and 10 mM, and were further diluted to final concentrations of 50 μM and 10 μM in 1 mL Dulbecco's modified Eagle medium (DMEM) supplemented with 1% heat inactivated fetal bovine serum (FBS), 1% L-glutamine, 50 U/ml penicillin, 50 μg/ml streptomycin and 2.5 μg/mL Fungizone (amphotericin B). Media and all media supplements were purchased from Gibco, Australia, except the FBS was purchased from Sigma, USA.
(§4) Peripheral blood leukocytes (PBL) were obtained from venous blood of healthy volunteers by sedimentation on 2% dextran T-500 (Amersham Biosciences, USA) and subsequent centrifugations of leukocyte rich plasma.
(§5) Peripheral blood leukocytes (PBL), isolated as described above, were seeded in a 48-well plate at a concentration of 3 to 5×10^6 cell per well in culture medium consisting of RPMI 1640 medium (Institute of Immunology, Croatia) supplemented with 10% heat-inactivated fetal calf serum (FCS, Biowhittaker, USA), 100 U/ml penicillin (Gibco, Australia), 100 μg/ml streptomycin (Gibco, Australia) and 2 mM L-glutamine (Gibco, Australia), and preincubated with the test compounds for 2 h at 37° C., in an atmosphere of 5% CO2, and 90% humidity. Then, stimuli (Sigma, USA) were added to a final concentration of 2 μg/mL lipopolysaccharide (LPS), 1 μg/mL phorbol 12-myristate 13-acetate (PMA) or 120 μg/mL zymosan. Samples were incubated overnight under conditions described above. At the end of incubation, the supernatants were transferred to eppendorf tubes and centrifuged for 10 min at 1500×g. Concentrations of human TNF-α, IL-1β, IL-6 and IL-8 were determined in cell supernatants by sandwich ELISA, using capture and detection antibodies (R&D Systems, Minneapolis, Minn.) according to the manufacturer's recommendations.
(§6) Inhibition (as percentage) was calculated using the following formula: % inhibition=(1−concentration of cytokines in sample/concentration of cytokines in positive control)×100.
(§7) The positive control refers to LPS-, PMA- or zymosan-stimulated samples that were not preincubated with test compounds.

[3] = system: IL-6; test: Inhibition of IL-6 production by stimulated human peripheral blood leukocytes in vitro; details: Homo sapiens, Leukocyte, read-out: Percentage of inhibition of IL-6 production
Protocol: as §3, §4, §5, §6, §7

[4] = system: A549; test: Cytotoxicity assay (MTT), A549 cell line; details: 24 h
Protocol: as §1, §2

[5] = system: IL-1α; test: Inhibition of IL-1 production by stimulated human peripheral blood leukocytes in vitro; details: Homo sapiens, Leukocyte, read-out: Percentage of inhibition of IL-1α production
[6] = system: IL-8; test: Inhibition of IL-8 production by stimulated human peripheral blood leukocytes in vitro; details: Homo sapiens, Leukocyte, read-out: Percentage of inhibition of IL-8 production
Protocol: as §3, §4, §5, §6, §7

| Structure (SMILES) | Percentage of inhibition of cell growth ([1]; 12.5 μM) [%] | Percentage of inhibition of cell growth ([1]; 50 μM) [%] | inhibition at 10 µM ([2]; LPS-stimulated PBL) [%] | inhibition at 10 µM ([2]; PMA-stimulated PBL) [%] | inhibition at 10 µM ([2]; zymosan-stimulated PBL) [%] | inhibition at 50 µM ([2]; LPS-stimulated PBL) [%] | inhibition at 50 µM ([2]; PMA-stimulated PBL) [%] | inhibition at 50 µM ([2]; zymosan-stimulated PBL) [%] | inhibition at 10 µM ([3]; LPS-stimulated PBL) [%] | inhibition at 10 µM ([3]; PMA-stimulated PBL) [%] | inhibition at 10 µM ([3]; zymosan-stimulated PBL) [%] | inhibition at 50 µM ([3]; LPS-stimulated PBL) [%] | inhibition at 50 µM ([3]; PMA-stimulated PBL) [%] | inhibition at 50 µM ([3]; zymosan-stimulated PBL) [%] | Percentage of inhibition of cell growth ([4]; 12.5 μM) [%] | Percentage of inhibition of cell growth ([4]; 50 μM) [%] | inhibition at 10 µM ([5]; LPS-stimulated PBL) [%] | inhibition at 10 µM ([5]; PMA-stimulated PBL) [%] | inhibition at 10 µM ([5]; zymosan-stimulated PBL) [%] | inhibition at 50 µM ([5]; LPS-stimulated PBL) [%] | other results |
| --- | --- | --- | --- | --- | --- | --- | --- | --- | --- | --- | --- | --- | --- | --- | --- | --- | --- | --- | --- | --- | --- |
| C=CC(=O)OC1[C@H](C)O[C@@H](O[C@H]2[C@H](C)[C@@H](O[C@@H]3O[C@H](C)C[C@H](NC)[C@H]3O)[C@](C)(OC)C[C@@H](C)C(=O)N[C@H](C)[C@@H](O)[C@](C)(O)[C@@H](CC)OC(=O)[C@@H]2C)C[C@@]1(C)OC (stereo partly shown) [Example 53, 3′-N-Demethyl-4″-O-acryloyl-6-O-methyl-9a-aza-9a-homoerythromycin A] | 0 | 2 | 28 | 82 | 64 | 100 | 100 | 100 | 20 | 66 | 68 | 99 | 95 | 100 | 9 | 12 | 83 | 92 | 92 | 95 | inhibition at 50 µM ([5]; PMA-stimulated PBL): 99%; inhibition at 50 µM ([5]; zymosan-stimulated PBL): 100%; inhibition at 10 µM ([6]; LPS-stimulated PBL): 9%; inhibition at 10 µM ([6]; PMA-stimulated PBL): 30%; inhibition at 10 µM ([6]; zymosan-stimulated PBL): 19%; inhibition at 50 µM ([6]; LPS-stimulated PBL): 100%; inhibition at 50 µM ([6]; PMA-stimulated PBL): 63%; inhibition at 50 µM ([6]; zymosan-stimulated PBL): 92% |
| CC[C@H]1OC(=O)[C@H](C)[C@@H](O[C@H]2C[C@@](C)(OC)[C@@H](OC(=O)CCN3CCN(CCOCCO)CC3)[C@H](C)O2)[C@H](C)[C@@H](O[C@@H]2O[C@H](C)C[C@H](N(C)C)[C@H]2O)[C@](C)(OC)C[C@@H](C)C(=O)N[C@H](C)[C@@H](O)[C@]1(C)O [Example 18] | 5 | 3 | 9 | 38 | 21 | 12 | 57 | 30 | 10 | 33 | 34 | 23 | 61 | 63 | 0 | 0 | 16 | 34 | 51 | 45 | inhibition at 50 µM ([5]; PMA-stimulated PBL): 68%; inhibition at 50 µM ([5]; zymosan-stimulated PBL): 90%; inhibition at 10 µM ([6]; LPS-stimulated PBL): 6%; inhibition at 10 µM ([6]; PMA-stimulated PBL): 7%; inhibition at 10 µM ([6]; zymosan-stimulated PBL): 25%; inhibition at 50 µM ([6]; LPS-stimulated PBL): 0%; inhibition at 50 µM ([6]; PMA-stimulated PBL): 0%; inhibition at 50 µM ([6]; zymosan-stimulated PBL): 22% |
| CC[C@H]1OC(=O)[C@H](C)[C@@H](O[C@H]2C[C@@](C)(OC)[C@@H](OC(=O)CCNC3CC3)[C@H](C)O2)[C@H](C)[C@@H](O[C@@H]2O[C@H](C)C[C@H](N(C)C)[C@H]2O)[C@](C)(OC)C[C@@H](C)C(=O)N[C@H](C)[C@@H](O)[C@]1(C)O [Example 40] | 2 | 2 | 67 | 55 | 60 | 82 | 77 | 76 | 7 | 0 | 0 | 0 | 0 | 0 | 0 | 0 | 0 | 0 | 1 | 28 | inhibition at 50 µM ([5]; PMA-stimulated PBL): 0%; inhibition at 50 µM ([5]; zymosan-stimulated PBL): 55%; inhibition at 10 µM ([6]; LPS-stimulated PBL): 24%; inhibition at 10 µM ([6]; PMA-stimulated PBL): 31%; inhibition at 10 µM ([6]; zymosan-stimulated PBL): 6%; inhibition at 50 µM ([6]; LPS-stimulated PBL): 0%; inhibition at 50 µM ([6]; PMA-stimulated PBL): 12%; inhibition at 50 µM ([6]; zymosan-stimulated PBL): 0% |
| CC[C@H]1OC(=O)[C@H](C)[C@@H](O[C@H]2C[C@@](C)(OC)[C@@H](OC(=O)CCN3CCN(CCCN4CCCCC4)CC3)[C@H](C)O2)[C@H](C)[C@@H](O[C@@H]2O[C@H](C)C[C@H](N(C)C)[C@H]2O)[C@](C)(OC)C[C@@H](C)C(=O)N[C@H](C)[C@@H](O)[C@]1(C)O [Example 22] | 3 | 1 | 0 | 0 | 0 | 23 | 55 | 35 | 3 | 16 | 28 | 28 | 60 | 51 | 5 | 0 | 5 | 14 | 57 | 46 | inhibition at 50 µM ([5]; PMA-stimulated PBL): 56%; inhibition at 50 µM ([5]; zymosan-stimulated PBL): 76%; inhibition at 10 µM ([6]; LPS-stimulated PBL): 0%; inhibition at 10 µM ([6]; PMA-stimulated PBL): 0%; inhibition at 10 µM ([6]; zymosan-stimulated PBL): 10%; inhibition at 50 µM ([6]; LPS-stimulated PBL): 5%; inhibition at 50 µM ([6]; PMA-stimulated PBL): 15%; inhibition at 50 µM ([6]; zymosan-stimulated PBL): 30% |
